This passage reports IC50 results from patent US10519177B2, “Heterocyclic compounds and uses thereof” (Plexxikon Inc., priority 2013, dated 2019).

Assay [1] deals with MV-4-11 cells. Description: Oncology cell growth assay MV-4-11 (CellTiter Glo). The assay is classed as cell-based. The conditions noted are these: Homo sapiens, MV4-11, 72 h; MV-4-11, 3d growth; read-out: Cell activity (IC50 μM) MV-4-11 3d-Growth. An outline of the steps:
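Growth read by CellTiter Glo luminescence after 72 h compound treatment of MLL-AF4-bearing MV-4-11 cells (3000/well). Titration: 8 points, 1:3 steps, maximum 10 μM, 0.2% DMSO final. Data normalized to DMSO wells, four-parameter fit gives pIC50.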
For orientation: Cellular ATP, detected with luciferase, serves as a proxy for viable cell number.

Assay [2] relates to bromodomain. Put plainly: at least one of the bromodomain cell assays of Example 57. The assay is classed as cell-based. The settings on record: at least one of the bromodomain cell assays described in Example 57; read-out: IC50 in at least one of the bromodomain cell assays.
The target in assay [3] is BRD4-BD12 (1-477) (Homo sapiens (Human), UniProt O60885). Put plainly: Alphascreen binding assay BRD4-BD12. The conditions noted are these: BRD4(1 2) H4; read-out: Biochemical activity (IC50 μM) BRD4(1 2) H4. In outline: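 In this competition format, compounds displace a biotinylated tetra-acetyl H4 peptide from E. coli-expressed human BRD4 bromodomain constructs captured on nickel chelate beads. The reaction runs at pH 7.5 with 2 mM DTT and detergent for 1 h at room temperature before a 30 min bead step.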
On the technique in general: In Alpha technology, singlet oxygen from a donor bead excites a nearby acceptor bead.

In general, IC50 refers to the concentration at which inhibition is half-maximal. For `COC(=O)c1ccc(-c2cn(CC3CCC4(CC3)CC4)c3cc(-c4c(C)noc4C)cnc23)cc1` [P-0581, methyl 4-[6-(3,5-dimethylisoxazol-4-yl)-1-(spiro[2.5]octan-6-ylmethyl)pyrrolo[3,2-b]pyridin-3-yl]benzoate], the IC50 in assay [1] was 1 to 10 µM; in assay [2], under 10000 nM; in assay [3], under 1 µM.

On to `Cc1noc(C)c1-c1cnc2c(-c3ccc(C(=O)O)cc3)cn(CC3CCC4(CC3)CC4)c2c1` [P-0582, 4-[6-(3,5-dimethylisoxazol-4-yl)-1-(spiro[2.5]octan-6-ylmethyl)pyrrolo[3,2-b]pyridin-3-yl]benzoic acid], for which the results for the IC50 in assay [1], in assay [2] and in assay [3] were under 1 µM, under 10000 nM and under 1 µM, respectively.

For `Cc1noc(C)c1-c1cnc2c(-c3ccc(C(=O)O)cc3)cn([C@H](C)c3ccccc3)c2c1` [P-0583, 4-[6-(3,5-dimethylisoxazol-4-yl)-1-[(1R)-1-phenylethyl]pyrrolo[3,2-b]pyridin-3-yl]benzoic acid], the IC50 in assay [1] was under 1 µM; in assay [2], under 10000 nM; in assay [3], under 1 µM.

For the compound `CCNC(=O)Nc1ccc(-c2cn(CC3CCC(F)(F)CC3)c3cc(-c4c(C)noc4C)cnc23)cn1` [P-0584, 1-[5-[1-[(4,4-difluorocyclohexyl)methyl]-6-(3,5-dimethylisoxazol-4-yl)pyrrolo[3,2-b]pyridin-3-yl]-2-pyridyl]-3-ethyl-urea], the IC50 in assay [1] is under 1 µM; in assay [2], under 10000 nM; in assay [3], under 1 µM.

Consider `COC(=O)c1ccc(-c2cn(CC3CCCCCC3)c3cc(-c4c(C)noc4C)cnc23)cc1` [P-0585, methyl 4-[1-(cycloheptylmethyl)-6-(3,5-dimethylisoxazol-4-yl)pyrrolo[3,2-b]pyridin-3-yl]benzoate], for which the IC50 is 1 to 10 µM in assay [1], under 10000 nM in assay [2] and under 1 µM in assay [3].

For the compound `Cc1noc(C)c1-c1cnc2c(-c3ccc(C(=O)O)cc3)cn(CC3CCCCCC3)c2c1` [P-0586, 4-[1-(cycloheptylmethyl)-6-(3,5-dimethylisoxazol-4-yl)pyrrolo[3,2-b]pyridin-3-yl]benzoic acid], the IC50 is under 1 µM in assay [1], under 10000 nM in assay [2] and under 1 µM in assay [3].

`Cc1noc(C)c1-c1cnc2c(-c3ccc(CC(=O)O)cc3)cn(CC3CCCCCC3)c2c1` [P-0587, 2-[4-[1-(cycloheptylmethyl)-6-(3,5-dimethylisoxazol-4-yl)pyrrolo[3,2-b]pyridin-3-yl]phenyl]acetic acid]: the IC50 in assay [1] was under 1 µM; in assay [2], under 10000 nM; in assay [3], under 1 µM.

In the case of `COC(=O)Cc1ccc(-c2cn(CC3CCCC3)c3cc(-c4c(C)noc4C)cnc23)cc1` [P-0588, methyl 2-[4-[1-(cyclopentylmethyl)-6-(3,5-dimethylisoxazol-4-yl)pyrrolo[3,2-b]pyridin-3-yl]phenyl]acetate], the IC50 was under 1 µM in assay [1], under 10000 nM in assay [2] and under 1 µM in assay [3].

Turning to `COC(=O)Cc1ccc(-c2cn(CC3CCCCC3)c3cc(-c4c(C)noc4C)cnc23)cc1` [P-0589, methyl 2-[4-[1-(cyclohexylmethyl)-6-(3,5-dimethylisoxazol-4-yl)pyrrolo[3,2-b]pyridin-3-yl]phenyl]acetate], the IC50 in assay [1] was under 1 µM; in assay [2], under 10000 nM; in assay [3], under 1 µM.

As for `Cc1noc(C)c1-c1cnc2c(-c3ccc(CC(=O)O)cc3)cn(CC3CCCCC3)c2c1` [P-0590, 2-[4-[1-(cyclohexylmethyl)-6-(3,5-dimethylisoxazol-4-yl)pyrrolo[3,2-b]pyridin-3-yl]phenyl]acetic acid], the IC50 in assay [1] was under 1 µM; in assay [2], under 10000 nM; in assay [3] it was under 1 µM.

In the case of `Cc1noc(C)c1-c1cnc2c(-c3ccc(CC(=O)O)cc3)cn(CC3CCCC3)c2c1` [P-0591, 2-[4-[1-(cyclopentylmethyl)-6-(3,5-dimethylisoxazol-4-yl)pyrrolo[3,2-b]pyridin-3-yl]phenyl]acetic acid], the IC50 was under 1 µM in assay [1], under 10000 nM in assay [2] and under 1 µM in assay [3].
